# Patent publication US20020192262A1, “1'-Acetoxychavicol acetate for tuberculosis treatment” (National Science and Technology Development Agency, priority 2001, published 2002)
# Legend:
# [1] = test system: dermatophytic fungi such as Trichophyton mentagrophytes, Trichophyton rubrum, Trichophyton concentricum and Epidermophyton floccosum; conditions: cited from earlier work
# Pseudomonas aeruginosa = conditions: cited from earlier work
# [2] = test system: nitric oxide synthase production in RAW264 (mice macrophage) cell line; conditions: concentration of 250 (unit not given), cited from earlier work
# Bacillus subtilis = conditions: cited from earlier work
# Escherichia coli = conditions: cited from earlier work
# Vero cells = conditions: African green monkey, 3 days
# NADPH oxidase = conditions: cited from earlier work
# xanthine oxidase = xanthine oxidase (Homo sapiens, UniProt P47989); conditions: cited from earlier work
# Candida albicans = conditions: cited from earlier work
# [3] = test system: Mycobacterium tuberculosis H37Ra strain (ATCC 25166); test: Microplate Alamar Blue assay (MABA), growth inhibition; format: cell-based; conditions: two-fold serial dilution from 50 to 0.025 μg/ml, read-out: MIC against M. tuberculosis H37Ra
# Description: Mycobacterium tuberculosis H37Ra strain (ATCC 25166) was grown in 100 ml of Middlebrook 7H9 broth supplemented with 0.2% glycerol, 1.0 gm/L of casitone, 10% OADC, and 0.05% Tween 80. The complete medium was referred to as 7H9GC-Tween. The bacteria were incubated in 500-ml flasks on a rotary shaker at 200 rpm and 37° C. until the optical density at 550 nm reached 0.4-0.5. The bacteria were washed twice with phosphate-buffered saline and then suspended in 20 ml of phosphate-buffered saline. The suspension was passed through an 8-μm-pore-size filter to eliminate clumps. The number of the bacteria in the filtrates was counted by plating the bacteria in Middlebrook 7H10 agar. The filtrates were stored at −80° C.
# Anti-tuberculous testing was performed in a 96-well microplate as previously described (Collins, L. and Franzblau, S. G. 1997). […]
# The plates were sealed with Parafilm and were incubated at 37° C. for 5 days. […] The results were recorded at 24 h post-reagent addition.
# A blue color in the well was interpreted as no growth, reflecting the activity of the test compound in the well. A pink color was scored as growth and reflected the lack of activity of the test compound. A few wells appeared violet after 24 h of incubation, but they invariably changed to pink after another day of incubation and thus were scored as growth (while the adjacent blue wells remained blue). […]
# Ebstein-Barr virus = conditions: cited from earlier work
# [4] = test system: Rhizopus stolonifer, Penicillium expansum, Aspergilus niger; conditions: compared with MIC for dermatophytic fungi; cited from earlier work
# [5] = test system: tumor and cancer in mice experimental models; conditions: skin, bile duct, esophageal, large intestinal, oral cancer and liver tumor models; cited from earlier work
# Staphylococcus aureus = conditions: cited from earlier work
# Sequence of xanthine oxidase (P47989 whole entry, species assumed): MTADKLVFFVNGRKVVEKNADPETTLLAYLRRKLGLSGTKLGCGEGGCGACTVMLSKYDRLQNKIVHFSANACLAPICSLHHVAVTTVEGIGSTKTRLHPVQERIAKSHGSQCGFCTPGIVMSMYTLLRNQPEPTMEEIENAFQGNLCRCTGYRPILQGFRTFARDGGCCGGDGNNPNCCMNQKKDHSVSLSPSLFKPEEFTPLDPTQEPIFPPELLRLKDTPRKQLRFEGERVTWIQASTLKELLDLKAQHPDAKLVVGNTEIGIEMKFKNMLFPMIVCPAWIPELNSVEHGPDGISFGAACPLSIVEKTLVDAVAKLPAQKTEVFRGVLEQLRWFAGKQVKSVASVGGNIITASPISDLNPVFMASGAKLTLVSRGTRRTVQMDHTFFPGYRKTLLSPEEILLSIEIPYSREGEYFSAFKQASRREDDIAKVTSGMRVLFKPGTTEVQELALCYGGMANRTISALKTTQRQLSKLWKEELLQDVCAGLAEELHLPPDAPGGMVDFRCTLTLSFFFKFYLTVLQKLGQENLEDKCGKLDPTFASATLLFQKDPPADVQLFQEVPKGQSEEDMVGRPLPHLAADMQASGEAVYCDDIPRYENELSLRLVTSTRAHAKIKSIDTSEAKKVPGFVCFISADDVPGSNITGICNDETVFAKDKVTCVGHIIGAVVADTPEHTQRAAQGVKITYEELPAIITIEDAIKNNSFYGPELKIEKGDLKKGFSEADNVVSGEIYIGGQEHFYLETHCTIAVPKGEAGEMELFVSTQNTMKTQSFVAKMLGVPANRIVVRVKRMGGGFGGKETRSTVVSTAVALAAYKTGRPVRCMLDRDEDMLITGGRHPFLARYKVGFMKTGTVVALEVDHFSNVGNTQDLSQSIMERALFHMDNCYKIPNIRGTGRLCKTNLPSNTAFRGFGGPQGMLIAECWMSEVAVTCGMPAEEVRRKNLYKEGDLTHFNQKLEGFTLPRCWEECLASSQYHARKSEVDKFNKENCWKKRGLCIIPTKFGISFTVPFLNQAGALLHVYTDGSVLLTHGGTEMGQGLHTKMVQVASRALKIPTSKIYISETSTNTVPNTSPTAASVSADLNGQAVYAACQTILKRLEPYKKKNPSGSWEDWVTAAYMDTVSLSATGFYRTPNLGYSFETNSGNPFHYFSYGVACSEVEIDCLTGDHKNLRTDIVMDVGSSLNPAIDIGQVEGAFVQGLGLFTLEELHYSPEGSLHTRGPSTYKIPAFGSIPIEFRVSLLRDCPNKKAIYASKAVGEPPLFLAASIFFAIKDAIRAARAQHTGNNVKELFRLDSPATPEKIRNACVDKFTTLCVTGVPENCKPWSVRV
compound,measurement,setting,value
"C=CC(OC(C)=O)c1ccc(OC(C)=O)cc1 (stereo not drawn) [1′-acetoxychavicol acetate, 1′-Acetoxychavicol acetate]",minimal inhibitory concentrations (MIC) against dermatophytic fungi,[1],50 to 250 µg/mL
same,growth inhibition of Pseudomonas aeruginosa,Pseudomonas aeruginosa,could not inhibit the growth
same,"inhibition of nitric oxide synthase production, lipopolysaccharide stimulated",[2]; 100 ng/ml bacterial lipopolysaccharide,could completely inhibit
same,"inhibition of nitric oxide synthase production, interferon-γ stimulated",[2]; 100 ng/ml interferon-γ,80%
same,growth inhibition of Bacillus subtilis,Bacillus subtilis,could not inhibit the growth
same,growth inhibition of Escherichia coli,Escherichia coli,could not inhibit the growth
same,toxic level against Vero cells (concentration giving less than half the viable cells of negative control),Vero cells,2.0 µg/mL
same,inhibition of the function of NADPH oxidase,NADPH oxidase,could inhibit the function
same,inhibition of the function of xanthine oxidase,xanthine oxidase,could inhibit the function
same,growth inhibition of Candida albicans,Candida albicans,could not inhibit the growth
same,MIC,[3],0.1 µg/mL
same,inhibition of activation of tumor virus,Ebstein-Barr virus,could inhibit the activation of tumor virus
same,"growth inhibition of Rhizopus stolonifer, Penicillium expansum, Aspergilus niger",[4],inhibited the growth of several other fungi
same,inhibition of tumor and cancer formation,[5],can inhibit the formation of many tumor and cancer
same,growth inhibition of Staphylococcus aureus,Staphylococcus aureus,could slightly inhibit the growth
